Measured values from PMC10436550, “Subacute toxicity evaluations of LPM3480392 in rats, a full µ-opioid receptor biased agonist” (Frontiers in Pharmacology, 2023).

Assay: Food consumption, 4-week subacute toxicity study
Format: in vivo, Sprague Dawley (SD) rats
Procedure: Food consumption of all surviving animals was recorded twice a week during the dosing phase and then once a week in last 2 weeks of recovery phase.

[1] = female rats, 0.6 mg/kg/day, Day 3
[2] = female rats, 0.6 mg/kg/day, Day 7
[3] = female rats, 0.6 mg/kg/day, Day 10
[4] = female rats, 0.6 mg/kg/day, Day 14
[5] = female rats, 0.6 mg/kg/day, Day 17
[6] = female rats, 0.6 mg/kg/day, Day 21
[7] = female rats, 0.6 mg/kg/day, Day 24
[8] = female rats, 0.6 mg/kg/day, Day 28
[9] = female rats, 0.6 mg/kg/day, Recovery day 20
[10] = female rats, 0.6 mg/kg/day, Recovery day 27
[11] = female rats, 1.2 mg/kg/day, Day 3
[12] = female rats, 1.2 mg/kg/day, Day 7
[13] = female rats, 1.2 mg/kg/day, Day 10
[14] = female rats, 1.2 mg/kg/day, Day 14
[15] = female rats, 1.2 mg/kg/day, Day 17
[16] = female rats, 1.2 mg/kg/day, Day 21
[17] = female rats, 1.2 mg/kg/day, Day 24
[18] = female rats, 1.2 mg/kg/day, Day 28
[19] = female rats, 1.2 mg/kg/day, Recovery day 20
[20] = female rats, 1.2 mg/kg/day, Recovery day 27
[21] = female rats, 2.4 mg/kg/day, Day 3
[22] = female rats, 2.4 mg/kg/day, Day 7
[23] = female rats, 2.4 mg/kg/day, Day 10
[24] = female rats, 2.4 mg/kg/day, Day 14
[25] = female rats, 2.4 mg/kg/day, Day 17
[26] = female rats, 2.4 mg/kg/day, Day 21
[27] = female rats, 2.4 mg/kg/day, Day 24
[28] = female rats, 2.4 mg/kg/day, Day 28
[29] = female rats, 2.4 mg/kg/day, Recovery day 20
[30] = female rats, 2.4 mg/kg/day, Recovery day 27
[31] = male rats, 0.6 mg/kg/day, Day 3
[32] = male rats, 0.6 mg/kg/day, Day 7
[33] = male rats, 0.6 mg/kg/day, Day 10
[34] = male rats, 0.6 mg/kg/day, Day 14
[35] = male rats, 0.6 mg/kg/day, Day 17
[36] = male rats, 0.6 mg/kg/day, Day 21
[37] = male rats, 0.6 mg/kg/day, Day 24
[38] = male rats, 0.6 mg/kg/day, Day 28
[39] = male rats, 0.6 mg/kg/day, Recovery day 20
[40] = male rats, 0.6 mg/kg/day, Recovery day 27
[41] = male rats, 1.2 mg/kg/day, Day 3
[42] = male rats, 1.2 mg/kg/day, Day 7
[43] = male rats, 1.2 mg/kg/day, Day 10
[44] = male rats, 1.2 mg/kg/day, Day 14
[45] = male rats, 1.2 mg/kg/day, Day 17
[46] = male rats, 1.2 mg/kg/day, Day 21
[47] = male rats, 1.2 mg/kg/day, Day 24
[48] = male rats, 1.2 mg/kg/day, Day 28
[49] = male rats, 1.2 mg/kg/day, Recovery day 20
[50] = male rats, 1.2 mg/kg/day, Recovery day 27
[51] = male rats, 2.4 mg/kg/day, Day 3
[52] = male rats, 2.4 mg/kg/day, Day 7
[53] = male rats, 2.4 mg/kg/day, Day 10
[54] = male rats, 2.4 mg/kg/day, Day 14
[55] = male rats, 2.4 mg/kg/day, Day 17
[56] = male rats, 2.4 mg/kg/day, Day 21
[57] = male rats, 2.4 mg/kg/day, Day 24
[58] = male rats, 2.4 mg/kg/day, Day 28
[59] = male rats, 2.4 mg/kg/day, Recovery day 20
[60] = male rats, 2.4 mg/kg/day, Recovery day 27

Fc1ccc([C@]2(CCNCc3cccc(Cl)c3)CCO[C@]3(CCOC3)C2)nc1 [LPM3480392]
Food consumption [1]: 12.6 ± 1.3 g/animal/cage/day
Food consumption change rate [1]: −14.86%
Food consumption [2]: 15.4 ± 1.1 g/animal/cage/day
Food consumption change rate [2]: 1.32%
Food consumption [3]: 15.9 ± 1.1 g/animal/cage/day
Food consumption change rate [3]: −3.05%
Food consumption [4]: 16.0 ± 0.5 g/animal/cage/day
Food consumption change rate [4]: −15.79%
Food consumption [5]: 15.8 ± 1.0 g/animal/cage/day
Food consumption change rate [5]: 9.72%
Food consumption [6]: 15.7 ± 0.7 g/animal/cage/day
Food consumption change rate [6]: −1.88%
Food consumption [7]: 14.9 ± 1.4 g/animal/cage/day
Food consumption change rate [7]: −6.29%
Food consumption [8]: 16.4 ± 0.9 g/animal/cage/day
Food consumption change rate [8]: −0.61%
Food consumption [9]: 15.9 g/animal/cage/day
Food consumption change rate [9]: −5.36%
Food consumption [10]: 13.3 g/animal/cage/day
Food consumption change rate [10]: −15.82%
Food consumption [11]: 14.9 ± 1.1 g/animal/cage/day
Food consumption change rate [11]: 0.68%
Food consumption [12]: 15.0 ± 1.3 g/animal/cage/day
Food consumption change rate [12]: −1.32%
Food consumption [13]: 15.2 ± 0.6 g/animal/cage/day
Food consumption change rate [13]: −7.32%
Food consumption [14]: 15.7 ± 0.9 g/animal/cage/day
Food consumption change rate [14]: −17.37%
Food consumption [15]: 16.6 ± 0.2 g/animal/cage/day
Food consumption change rate [15]: 15.28%
Food consumption [16]: 15.8 ± 1.4 g/animal/cage/day
Food consumption change rate [16]: −1.25%
Food consumption [17]: 16.6 ± 1.7 g/animal/cage/day
Food consumption change rate [17]: 4.40%
Food consumption [18]: 16.4 ± 0.8 g/animal/cage/day
Food consumption change rate [18]: −0.61%
Food consumption [19]: 15.1 g/animal/cage/day
Food consumption change rate [19]: −10.12%
Food consumption [20]: 16.7 g/animal/cage/day
Food consumption change rate [20]: 5.70%
Food consumption [21]: 13.0 ± 2.1 g/animal/cage/day
Food consumption change rate [21]: −12.16%
Food consumption [22]: 15.8 ± 1.9 g/animal/cage/day
Food consumption change rate [22]: 3.95%
Food consumption [23]: 15.1 ± 0.8 g/animal/cage/day
Food consumption change rate [23]: −7.93%
Food consumption [24]: 17.5 ± 1.0 g/animal/cage/day
Food consumption change rate [24]: −7.89%
Food consumption [25]: 15.1 ± 1.0 g/animal/cage/day
Food consumption change rate [25]: 4.86%
Food consumption [26]: 17.5 ± 1.3 g/animal/cage/day
Food consumption change rate [26]: 9.38%
Food consumption [27]: 15.6 ± 1.2 g/animal/cage/day
Food consumption change rate [27]: −1.89%
Food consumption [28]: 16.7 ± 0.8 g/animal/cage/day
Food consumption change rate [28]: 1.21%
Food consumption [29]: 16.4 g/animal/cage/day
Food consumption change rate [29]: −2.38%
Food consumption [30]: 15.0 g/animal/cage/day
Food consumption change rate [30]: −5.06%
Food consumption [31]: 19.7 ± 0.1 g/animal/cage/day
Food consumption change rate [31]: −2.96%
Food consumption [32]: 20.8 ± 0.6 g/animal/cage/day
Food consumption change rate [32]: −8.37%
Food consumption [33]: 23.0 ± 1.6 g/animal/cage/day
Food consumption change rate [33]: −17.56%
Food consumption [34]: 21.0 ± 1.3 g/animal/cage/day
Food consumption change rate [34]: −17.32%
Food consumption [35]: 21.1 ± 1.9 g/animal/cage/day
Food consumption change rate [35]: −11.34%
Food consumption [36]: 21.6 ± 0.8 g/animal/cage/day
Food consumption change rate [36]: −9.24%
Food consumption [37]: 20.6 ± 1.0 g/animal/cage/day
Food consumption change rate [37]: −8.04%
Food consumption [38]: 22.9 ± 1.2 g/animal/cage/day
Food consumption change rate [38]: −5.76%
Food consumption [39]: 25.2 g/animal/cage/day
Food consumption change rate [39]: 0.40%
Food consumption [40]: 22.3 g/animal/cage/day
Food consumption change rate [40]: 0.90%
Food consumption [41]: 19.2 ± 0.9 g/animal/cage/day
Food consumption change rate [41]: −5.42%
Food consumption [42]: 20.5 ± 0.7 g/animal/cage/day
Food consumption change rate [42]: −9.69%
Food consumption [43]: 20.4 ± 1.8 g/animal/cage/day
Food consumption change rate [43]: −26.88%
Food consumption [44]: 20.2 ± 0.7 g/animal/cage/day
Food consumption change rate [44]: −20.47%
Food consumption [45]: 20.5 ± 1.7 g/animal/cage/day
Food consumption change rate [45]: −13.87%
Food consumption [46]: 23.2 ± 1.2 g/animal/cage/day
Food consumption change rate [46]: −2.52%
Food consumption [47]: 22.2 ± 1.1 g/animal/cage/day
Food consumption change rate [47]: −0.89%
Food consumption [48]: 22.5 ± 1.3 g/animal/cage/day
Food consumption change rate [48]: −7.41%
Food consumption [49]: 24.5 g/animal/cage/day
Food consumption change rate [49]: −2.39%
Food consumption [50]: 22.6 g/animal/cage/day
Food consumption change rate [50]: 2.26%
Food consumption [51]: 17.8 ± 0.8 g/animal/cage/day
Food consumption change rate [51]: −12.32%
Food consumption [52]: 20.0 ± 2.3 g/animal/cage/day
Food consumption change rate [52]: −11.89%
Food consumption [53]: 20.1 ± 1.9 g/animal/cage/day
Food consumption change rate [53]: −27.96%
Food consumption [54]: 17.3 ± 5.2 g/animal/cage/day
Food consumption change rate [54]: −31.89%
Food consumption [55]: 20.1 ± 0.7 g/animal/cage/day
Food consumption change rate [55]: −15.55%
Food consumption [56]: 23.2 ± 1.1 g/animal/cage/day
Food consumption change rate [56]: −2.52%
Food consumption [57]: 22.1 ± 3.0 g/animal/cage/day
Food consumption change rate [57]: −1.34%
Food consumption [58]: 22.5 ± 1.9 g/animal/cage/day
Food consumption change rate [58]: −7.41%
Food consumption [59]: 24.0 g/animal/cage/day
Food consumption change rate [59]: −4.38%
Food consumption [60]: 23.8 g/animal/cage/day
Food consumption change rate [60]: 7.69%
